Our source for the IC50 values is patent US20210238136A1, “AZETIDINE DERIVATIVE, AND PRODRUG THEREOF” (DAIICHI SANKYO COMPANY, LIMITED, priority 2018, published 2021).

Counter-ions that a name gives are not always drawn.

The test system of this test is activated T cells (CD4+ T cells from mouse spleen). Briefly: 3H-thymidine uptake in activated T cells. The format is cell-based, mouse (C57BL/6J). Conditions: T-cell; mouse spleen CD4+ T cells activated with Dynabeads Mouse T-Activator CD3/CD28; read-out: IC50 (3H-thymidine uptake, proliferation of activated T cells). The protocol:
Effect of Test Substance on ^3H-Thymidine Uptake in Activated T Cells
The effect of test substance on ^3H-thymidine uptake by activation was evaluated using T cells from mouse spleen. The spleen was removed from euthanized C57BL/6J mice, and finely sliced, then triturated on a cell strainer (40 μm mesh), and cells were collected by centrifugation. The collected splenocytes were treated with Cold lyser containing 0.17 M NH4Cl for 5 minutes to hemolytically remove red blood cells and then washed. The resulting cells were used as the splenocytes. From the splenocytes, CD4+ T cells were isolated using an EasySep Mouse CD4+ T cell isolation kit (STEMCELL Technologies Inc.). The CD4+ T cells were seeded into 96-well round-bottom plates. To the plates, test substance or Vehicle was added, and Dynabeads Mouse T-Activator CD3/CD28 (Thermo Fisher Scientific Inc.) was added, then the cells were cultured at 37° C. under 5% CO2. After 24 hours of culture, ^3H-Thymidine (PerkinElmer Inc.) diluted with medium was added to each well, then the cells were further cultured at 37° C. under 5% CO2 overnight. To measure ^3H-Thymidine uptake into the nuclei of the cells, the cells were collected into filter plates UniFilter-96 GF/B (PerkinElmer Inc.) using a FilterMate Universal Harvester (PerkinElmer Inc.). The filter plates were placed in a dryer and left still for 2 hours or more. Then, scintillation cocktail MicroScint-O (PerkinElmer Inc.) was added to the plates, and radioactivity was measured with TopCount NXT (PerkinElmer Inc.). With the radioactivity of the test substance-free group set as 100% and the radioactivity of the non-activation group as 0%, the relative value (proliferation rate, % of vehicle) of the radioactivity of each well to which test substance was added was calculated. The value of % of vehicle was incorporated into analysis software Prism (Version 5.0, GraphPad Software), the “Nonlinear Regression Log (inhibitor) vs Reaction Variable Inclination” was selected, and then sigmoid fitting with restrictions of Bottom=0 and Top=100 was performed to calculate 50% inhibitory concentration (IC50).
Consider `N#Cc1cccc(OC2(c3ccccc3)CN(S(=O)(=O)c3cccc(C[C@H](N)C(=O)O)c3)C2)c1` [Example 20], for which the IC50 came out at 3 nM. As for `N[C@@H](Cc1cccc(S(=O)(=O)N2CC(Cc3ccccc3)(c3ccccc3)C2)c1)C(=O)O` [Example 16], the IC50 was found to be 68 nM. For `N[C@@H](Cc1cccc(S(=O)(=O)N2CC(Oc3ccccc3)(c3ccccc3)C2)c1)C(=O)O` [Example 24], the IC50 worked out at 0.49 nM.

In the case of `N[C@@H](Cc1cccc(S(=O)(=O)N2CC(OC3CC3)(c3ccccc3)C2)c1)C(=O)O` [Example 39], the IC50 is 140 nM. As for `N[C@@H](Cc1cccc(S(=O)(=O)N2CC(Oc3ccc(Br)cc3)(c3ccccc3)C2)c1)C(=O)O` [Example 19], the IC50 came to 3 nM. Regarding `N[C@@H](Cc1cccc(S(=O)(=O)N2CC(Oc3ccc(F)cc3)(c3ccc(F)cc3)C2)c1)C(=O)O` [Example 6, (S)-2-Amino-3-(3-((3-(4-fluorophenoxy)-3-(4-fluorophenyl)azetidin-1-yl)sulfonyl)phenyl)propanoic acid], the IC50 stood at 1.2 nM. With `N[C@@H](Cc1cccc(S(=O)(=O)N2CC(Oc3ccc(F)cc3)(c3ccccc3F)C2)c1)C(=O)O` [Example 14], the IC50 came to 30 nM.

As for `N[C@@H](Cc1cccc(S(=O)(=O)N2CC(Oc3cccnc3)(c3ccccc3)C2)c1)C(=O)O` [Example 22], the IC50 was 8.7 nM. With `N[C@@H](Cc1cccc(S(=O)(=O)N2CC(Oc3ccc(F)cc3)(c3ccccn3)C2)c1)C(=O)O` [Example 43], the IC50 is 8.6 nM. Turning to `N#Cc1ccccc1OC1(c2ccccc2)CN(S(=O)(=O)c2cccc(C[C@H](N)C(=O)O)c2)C1` [Example 18, (S)-2-Amino-3-(3-((3-(2-cyanophenoxy)-3-phenylazetidin-1-yl)sulfonyl)phenyl)propanoic acid], the IC50 turned out to be 2.9 nM. As to `N[C@@H](Cc1cccc(S(=O)(=O)N2CC(Oc3ccccc3F)(c3ccc(F)cc3)C2)c1)C(=O)O` [Example 4, (S)-2-Amino-3-(3-((3-(2-fluorophenoxy)-3-(4-fluorophenyl)azetidin-1-yl)sulfonyl)phenyl)propanoic acid], the IC50 stood at 2.6 nM. `N[C@@H](Cc1cccc(S(=O)(=O)N2CC(Oc3cccc(F)c3)(c3ccccn3)C2)c1)C(=O)O` [Example 35]: the IC50 came out at 17 nM.

For the compound `N[C@@H](Cc1cccc(S(=O)(=O)N2CC(Oc3ccccc3Cl)(c3ccccc3)C2)c1)C(=O)O` [Example 7, (S)-2-Amino-3-(3-((3-(2-chlorophenoxy)-3-phenylazetidin-1-yl)sulfonyl)phenyl)propanoic acid], the IC50 is 4.1 nM. Take `N[C@@H](Cc1cccc(S(=O)(=O)N2CC(Oc3ccccc3)(c3nccs3)C2)c1)C(=O)O` [Example 32]: the IC50 was 11 nM. As for `N[C@@H](Cc1cccc(S(=O)(=O)N2CC(Oc3ccccc3-c3ccccc3Cl)C2)c1)C(=O)O` [Example 38], the IC50 is 34 nM.

Turning to `N[C@@H](Cc1cccc(S(=O)(=O)N2CC(Oc3ccc(F)c(F)c3)(c3ccccc3)C2)c1)C(=O)O` [Example 10, (S)-2-Amino-3-(3-((3-(3,4-difluorophenoxy)-3-phenylazetidin-1-yl)sulfonyl)phenyl)propanoic acid], the IC50 is 21 nM. Turning to `N[C@@H](Cc1cccc(S(=O)(=O)N2CC(c3ccccc3-c3ccccc3)C2)c1)C(=O)O` [Example 36], the IC50 was found to be 78 nM. In the case of `NC(=O)c1ccc(OC2(c3ccccc3)CN(S(=O)(=O)c3cccc(C[C@H](N)C(=O)O)c3)C2)cc1` [Example 17, (S)-2-Amino-3-(3-((3-(4-carbamoylphenoxy)-3-phenylazetidin-1-yl)sulfonyl)phenyl)propanoic acid hydrochloride], the IC50 amounted to 1.2 nM.

`Cc1ccccc1-c1ccccc1C1CN(S(=O)(=O)c2cccc(C[C@H](N)C(=O)O)c2)C1` [Example 37]: the IC50 worked out at 85 nM. In the case of `N[C@@H](Cc1cccc(S(=O)(=O)N2CC(Oc3ccncc3)(c3ccccc3)C2)c1)C(=O)O` [Example 23], the IC50 worked out at 16 nM. For `CC(C)(C)CC1(Oc2ccccc2)CN(S(=O)(=O)c2cccc(C[C@H](N)C(=O)O)c2)C1` [Example 25], the IC50 amounted to 92 nM. For `N[C@@H](Cc1cccc(S(=O)(=O)N2CC(Oc3ccccc3)(C(F)(F)F)C2)c1)C(=O)O` [Example 29], the IC50 came to 180 nM.

As to `NC(=O)c1cccc(OC2(c3ccccc3)CN(S(=O)(=O)c3cccc(C[C@H](N)C(=O)O)c3)C2)c1` [Example 15], the IC50 was 2.9 nM. Under `N[C@@H](Cc1cccc(S(=O)(=O)N2CC(Oc3cccc(F)c3)(c3ccc(F)cc3)C2)c1)C(=O)O` [Example 1, (S)-2-Amino-3-(3-((3-(3-fluorophenoxy)-3-(4-fluorophenyl)azetidin-1-yl)sulfonyl)phenyl)propanoic acid] stands 1.2 nM; under `N[C@@H](Cc1cccc(S(=O)(=O)N2CC(Oc3cccc(C(F)(F)F)c3)(c3ccccc3)C2)c1)C(=O)O` [Example 21], 2.5 nM; under `N[C@@H](Cc1cccc(S(=O)(=O)N2CC(Oc3ccccc3)(c3ccccn3)C2)c1)C(=O)O` [Example 33], 7.8 nM. Under `N[C@@H](Cc1cccc(S(=O)(=O)N2CC(Oc3ccccc3F)(c3ccccn3)C2)c1)C(=O)O` [Example 34] stands 19 nM. With `N[C@@H](Cc1cccc(S(=O)(=O)N2CC(Oc3ccccc3)(C3CC3)C2)c1)C(=O)O` [Example 31], the IC50 was found to be 210 nM. Consider `N[C@@H](Cc1cccc(S(=O)(=O)N2CC(Oc3ccccc3Br)(c3ccccc3)C2)c1)C(=O)O` [Example 5, (S)-2-Amino-3-(3-((3-(2-bromophenoxy)-3-phenylazetidin-1-yl)sulfonyl)phenyl)propanoic acid], for which the IC50 worked out at 3.2 nM. `N#Cc1ccc(OC2(c3ccccc3)CN(S(=O)(=O)c3cccc(C[C@H](N)C(=O)O)c3)C2)cc1` [Example 40]: the IC50 amounted to 2.2 nM. Regarding `CC1(Oc2ccccc2)CN(S(=O)(=O)c2cccc(C[C@H](N)C(=O)O)c2)C1` [Example 30], the IC50 came out at 1100 nM. As for `N[C@@H](Cc1cccc(S(=O)(=O)N2CC(Oc3cccc(Cl)c3)(c3ccccc3)C2)c1)C(=O)O` [Example 3, (S)-2-Amino-3-(3-((3-(3-chlorophenoxy)-3-phenylazetidin-1-yl)sulfonyl)phenyl)propanoic acid], the IC50 is 3.1 nM.

Consider `[2H]c1c([2H])c([2H])c(C2(Oc3cccc(F)c3)CN(S(=O)(=O)c3cccc(C[C@H](N)C(=O)O)c3)C2)c([2H])c1[2H]` [Example 28], for which the IC50 is 2.3 nM. As to `N[C@@H](Cc1cccc(S(=O)(=O)N2CC(Oc3cccc(F)c3)(c3ccccc3F)C2)c1)C(=O)O` [Example 13], the IC50 was found to be 3 nM. With `N[C@@H](Cc1cccc(S(=O)(=O)N2CC(Oc3ccc(C(F)(F)F)cc3)(c3ccccc3)C2)c1)C(=O)O` [Example 12], the IC50 came to 9.6 nM. In the case of `N[C@@H](Cc1cccc(S(=O)(=O)N2CC(Oc3ccccc3)(c3ccccc3F)C2)c1)C(=O)O` [Example 27], the IC50 was 2.9 nM. For the compound `Cc1ccc(OC2(c3ccccc3)CN(S(=O)(=O)c3cccc(C[C@H](N)C(=O)O)c3)C2)cc1` [Example 9], the IC50 turned out to be 4.3 nM. With `N[C@@H](Cc1cccc(S(=O)(=O)N2CC(Oc3ccc(F)c(Cl)c3)(c3ccccc3)C2)c1)C(=O)O` [Example 11] the figure was 20 nM; with `N[C@@H](Cc1cccc(S(=O)(=O)N2CC(Oc3cccc(Br)c3)(c3ccccc3)C2)c1)C(=O)O` [Example 8, (S)-2-Amino-3-(3-((3-(3-bromophenoxy)-3-phenylazetidin-1-yl)sulfonyl)phenyl)propanoic acid], 3 nM; with `N[C@@H](Cc1cccc(S(=O)(=O)N2CC(Oc3ccccc3)(c3cccc(F)c3)C2)c1)C(=O)O` [Example 26], 2.5 nM. For the compound `N[C@@H](Cc1cccc(S(=O)(=O)N2CC(Oc3ccccc3C(F)(F)F)(c3ccccc3)C2)c1)C(=O)O` [Example 2], the IC50 turned out to be 15 nM.
